Legend:
[1] = HEL release from AgriCell in PBS; type: physicochemical; settings: PBS pH 7.3, 37° C.
Method: Samples were incubated at 37° C. under mild shaking. After 15, 30, 45, 60, 90, 120, 180, and 240 minutes, the tubes were given a spin-off and samples of 250 μL of the supernatant were taken. These samples were replaced by PBS (pH 7.3). The non-encapsulated HEL in PBS was determined with the Lowry protein assay and AgriCell-encapsulated HEL was determined by arithmetic differential calculation.

[2] = tested on: 3A9 T-cell hybridomas cocultured with mouse peritoneal macrophages; assay: IL-2 expression in 3A9 T-cell hybridomas cocultured with macrophages (ELISA); type: cell-based; settings: 10 mg/mL
Method: Mouse peritoneal macrophages were resuspended in media and plated in 24-well cell-culture plates at a concentration of 1×10^8 cells/well. After 3 hours, the macrophages were attached and washed with DMEM media until cells other than macrophages were removed. Supplemented media (DMEM, 10% FBS, 2 mM of L-alanyl-L-glutamine, 100 U/mL of media penicillin and 100 U/mL of media streptomycin) was added and the macrophages were incubated overnight at 37° C. and 5% CO2. The 3A9 T-cell hybridomas were maintained in DMEM supplemented with 10% FBS, 50 μg of gentamycin/mL media, 2 mM of L-alanyl-L-glutamine, 10 mM of HEPES buffer, 55 μM of 2-mercaptoethanol, and 1× non-essential amino acids. For experiments, media was removed from the macrophages and rinsed once with PBS. […] The media was removed, and cells washed once with PBS. The T-cell hybridomas (concentration equals 2× the number of macrophages) in 3A9 media (without phenol red) were added to the macrophages and incubated for 24 hours. Media was removed, placed in microfuge tubes, centrifuged for 4 minutes at 15,000×g, and IL-2 was measured by an ELISA kit (555148, BD Biosciences). Data were expressed as pg of IL-2/mL media.

[3] = tested on: Pseudomonas aeruginosa ATCC 15442; assay: Zone of inhibition test (Kirby-Bauer); type: cell-based; settings: ATCC15442, read-out: growth inhibition compared to positive control (Vancomycin 30 μg/mL)
Method: (§1) In this example, the zone of inhibition test, also called a Kirby-Bauer Test, was conducted to measure antibiotic resistance of eugenol encapsulated into AgriCell. Approximately 1×10^8 cells from a selected bacterial strain (Escherichia coli ATCC 25922 and Pseudomonas aeruginosa ATCC 15442) were spread over an agar plate using a sterile swab, then incubated in the presence of the antimicrobial agent (adsorbed over a paper disc). If the bacterial strain is susceptible to the antimicrobial agent, then a zone of inhibition appears on the agar plate, whereas if the selected bacterial strain is resistant to the antimicrobial agent, then no zone is evident.

[4] = tested on: Escherichia coli ATCC 25922; assay: Zone of inhibition test (Kirby-Bauer); type: cell-based; settings: ATCC25922, read-out: growth inhibition compared to positive control (Vancomycin 30 μg/mL)
Method: as §1

[5] = Auto-oxidative degradation of essential oils under UV and Vis light; type: physicochemical; settings: after 7 days under UV and Vis light
Method: (§2) AgriCell-encapsulated EOs (200 mg/mL of EO loaded with 200 mg/mL of AgriCell) were diluted 1:10 in deionized water (total volume 1000 μL, 14 replicates for each EO) and the solutions were left under UV radiation for a total period of 7 days. One replicate of each EO per treatment was collected daily and tested for EO content by UV-Vis spectroscopy as described in Example 2. Results were reported as concentration of EO as function of time for each stability condition.

[6] = Thermal degradation of essential oils at 40° C.; type: physicochemical; settings: day 7 at 40° C., diluted 1:10 in deionized water
Method: as §2, with “at 40° C.” for “under UV radiation”, “content.” for “content by UV-Vis spectroscopy as described in Example 2.”

[7] = Encapsulation (loading) efficacy of essential oils / active ingredients into AgriCell; type: physicochemical
Method: After AgriCells are purified, the concentrated AgriCell paste or dry lyophilized powder is loaded with EOs. If dry, the AgriCells are first homogenized into a finer powder through mechanical homogenization. A stock solution from each EO is prepared in ethanol at 100 mg/mL-200 mg/mL. Lyophilized AgriCells would then be suspended in a solution with the EO solution at a ratio of 1 g of dry AgriCells to 10 mL of EO solution. Once resuspended, the ethanol is allowed to evaporate overnight, leaving behind EO encapsulated AgriCells in the process. After this overnight period, encapsulated AgriCells are removed from the beaker, and the EO-encapsulated AgriCell powder is mechanically homogenized. This encapsulated product is ready for resuspension in its appropriate medium. Loading efficacy was measured and/or calculated as percentage of EO loaded into AgriCell after extraction with ethanol 100% v/v and quantification by UV-Vis spectroscopy. Eugenol and thymol were quantified at 280 nm, whereas pyrethrum was quantified at 230 nm against its respective calibration standard curve. Also, Genistein was quantified at […], whereas eugenol was quantified at 280 nm against its respective calibration standard curve.

[8] = tested on: E. coli strain ATCC 8739; assay: Bacterial agglutination (transmittance at 450 nm); type: cell-based; settings: 300 μg/mL
Method: E. coli strain ATCC 8739 (which causes disease outside of the intestinal tract and its highly virulent in chickens) from a frozen stock was cultured in tryptose broth (10 g of tryptose, 2.5 g of sodium chloride, 0.5 g of dextrose, and 0.0025 g of thiamin hydrochloride in 500 mL of deionized water) at 37° C. for 48 hours. After incubation, 1 mL of E. coli cultures were taken from the surface of the broth and used to inoculate new broths that were incubated at 37° C. for 24 hours. After 24 hours, the bacterial cultures were centrifuged at 1800 g for 10 minutes to obtain bacterial pellets. The pellets were washed twice with 1x PBS+Ca^2+/Mg^2+ and then resuspended in 1 mL of PBS+Ca^2+/Mg^2+ to obtain the bacterial stock solutions. The optical density of the suspension was measure at 600 nm and bacterial cell densities (CFU/mL) were calculated using previously established bacterial growth curves for each strain of bacteria. […] The final concentration of each cuvette was 300 μg/mL of genistein equivalent and 5.0×10^8 CFU/mL in a total volume of 1 mL. The cuvettes were mixed via trituration and placed on an UV-Visible spectrophotometer equipped with an eight-position cuvette holder. The percent transmittance of light at 450 nm was measured every 1 min for 240 min. […] After 240 min, the area under the curve was calculated from the generated transmittance calibration curves.

[9] = tested on: H. pylori; settings: 2 mg/L; cited from earlier work
[10] = tested on: E. coli; settings: cited from earlier work
[11] = AI 100 mg/mL encapsulated into AgriCell (FIG. 4B)
[12] = EO 200 mg/mL encapsulated into AgriCell (FIG. 4A)

| Compound | autoxidatively degraded (degradation rates) [5] [%] | existence (remained/not damaged) [5] [%] | percentages of degradation [6] [%] | encapsulation efficacy [7, 11] [%] | encapsulation efficacy [7, 12] [%] | further results |
| --- | --- | --- | --- | --- | --- | --- |
| HEL: hen egg-white lysozyme, model protein antigen, 14.7 kDa |  |  |  |  |  | HEL released, initial burst stage ([1]; 15 minutes): 89.2%; HEL released ([1]; 240 minutes): 100.1%; preincubation time to maximum IL-2 expression [2]: > 10 h |
| C=CCc1ccc(O)c(OC)c1 [eugenol] | 82.7 | 17.3 | 17.3 | 91.1 | 95.5 | inhibition at 200 µg/mL [3]: < 60%; inhibition at 200 µg/mL [4]: < 80% |
| O=c1c(-c2ccc(O)cc2)coc2cc(O)cc(O)c12 [genistein] |  |  |  | 83.6 |  | lag phase of agglutination curve [8]: about 25 minutes |
| CC(C)=CCC/C(C)=C/CO [geraniol] |  |  |  |  |  | growth of H. pylori in vitro [9]: inhibited the growth |
| CC(C)=CCCC(C)=CC=O [citral] |  |  |  |  |  | concentration in growth media that reduced the concentration of E. coli [10]: more than 0.01%; concentration with bactericidal effect [10]: 0.08% |
| Cc1ccc(C(C)C)c(O)c1 [thymol] | 55.8 | 44.2 | 20.9 |  | 91.8 |  |
